Serum ferritin level data for one compound are collected here from patent US20100093871A1, “AGENT FOR PREVENTION OR TREATMENT OF IRON OVERLOAD DISORDERS” (MEIJI SEIKA KAISHA, LTD., priority 2007, published 2010).

The assay has as its system serum ferritin. The assay can be described thus: Serum ferritin in chronic hepatitis C patients after oral administration for 24 weeks. Format: in vivo, human (patients suffering from chronic hepatitis C). Particulars: patients with chronic hepatitis C, 50 mg/day or 200 mg/day in two divided doses, CLIA, percentage change vs level before administration. Here is the method:
To patients suffering from chronic hepatitis C, 22β-methoxyolean-12-ene-3β,24(4β)-diol was orally administered for 24 weeks, at a daily dose of 50 mg/day or 200 mg/day. The administration of 22β-methoxyolean-12-ene-3β,24(4β)-diol in each administration group was carried out by orally administering half of each daily dose twice a day after eating breakfast and dinner. For example, in the 50 mg/day administration group, each day 25 mg of the drug was orally administered after breakfast and 25 mg of the drug was orally administered after dinner. Immediately after the beginning of the administration, and after 2, 4, 8, 12, 16, 20, and 24 weeks from the beginning of the administration, serum samples were collected to determine serum ferritin contained in the samples. […] Serum ferritin was determined by a chemiluminescence immunoassay (CLIA) with reference to a method described in a protocol attached to Chemilumi ACS-Ferritin II (Bayer Medical). Each serum ferritin level contained in each serum sample collected was indicated as percentage, with the serum ferritin level before the administration of 22β-methoxyolean-12-ene-3β,24(4β)-diol regarded as […], and an average and a median of all patients were calculated.

For the compound `CO[C@@H]1CC(C)(C)CC2C3=CCC4[C@@]5(C)CC[C@H](O)[C@](C)(CO)C5CC[C@@]4(C)[C@]3(C)CC[C@]21C` (stereo partly drawn) [22β-methoxyolean-12-ene-3β,24(4β)-diol], the serum ferritin level entry is “serum ferritin was lowered”.
